The values that follow come from ChEMBL document CHEMBL1177809, “Motualevic acids and analogs: synthesis and antimicrobial structure-activity relationships” (2010).

Values after ≈ are worked out from the molar mass of the structure shown. Active and inactive are the calls of the source. The rule behind the calls is not given here.

One may read the MIC as the lowest concentration found to suppress growth.

Assay [1] deals with Staphylococcus aureus. The assay is described as follows: Antibacterial activity against Staphylococcus aureus at 50 ug/disk by agar disk diffusion assay. As to conditions: for zone of inhibition at 50 µg/disc: read-out: IZ. Format: functional. (In general: A growth-free zone around the sample is the usual read-out of agar diffusion tests.)
Assay [2] deals with Staphylococcus aureus. The assay is described as follows: Antibacterial activity against methicillin-resistant Staphylococcus aureus at 50 ug/disk by agar disk diffusion assay. Format: functional. The following applies: for zone of inhibition at 50 µg/disc: read-out: IZ.
Assay [3] deals with Staphylococcus aureus. The assay can be described thus: Antibacterial activity against Staphylococcus aureus at 10 ug/disk by agar disk diffusion assay. Format: functional. The following applies: read-out: IZ.
Assay [4] has as its system Staphylococcus aureus. The assay can be described thus: Antibacterial activity against methicillin-resistant Staphylococcus aureus at 10 ug/disk by agar disk diffusion assay. The following applies: read-out: IZ. Format: functional.
In assay [5] the test system is Enterococcus faecium. The assay can be described thus: Antibacterial activity against Enterococcus faecium at 25 ug/disk by agar disk diffusion assay. Format: functional. As to conditions: read-out: IZ.
The test system of assay [6] is Enterococcus. The assay can be described thus: Antibacterial activity against vancomycin-resistant Enterococcus at 10 ug/disk by agar disk diffusion assay. Format: functional. The following applies: read-out: IZ.
The test system of assay [7] is Enterococcus. The assay is described as follows: Antibacterial activity against vancomycin-resistant Enterococcus at 25 ug/disk by agar disk diffusion assay. Format: functional. As to conditions: read-out: IZ.
For assay [8], the system named is Staphylococcus aureus. The assay can be described thus: Antibacterial activity against Staphylococcus aureus by microbroth dilution assay. Format: functional. A general note: Broth dilution looks for growth in wells or tubes with falling amounts of substance.
For assay [9], the system named is Staphylococcus aureus. The assay can be described thus: Antibacterial activity against methicillin-resistant Staphylococcus aureus by microbroth dilution assay. Format: functional.
Assay [10] concerns Enterococcus faecium. The assay can be described thus: Antibacterial activity against Enterococcus faecium by microbroth dilution assay. Format: functional.
For assay [11], the system named is Enterococcus. The assay is described as follows: Antibacterial activity against vancomycin-resistant Enterococcus by microbroth dilution assay. Format: functional.
In assay [12] the test system is Staphylococcus aureus. The assay is described as follows: Antibacterial activity against Staphylococcus aureus at 25 ug/disk by agar disk diffusion assay. Format: functional. The following applies: read-out: IZ.
Assay [13] relates to Staphylococcus aureus. The assay is described as follows: Antibacterial activity against methicillin-resistant Staphylococcus aureus at 25 ug/disk by agar disk diffusion assay. As to conditions: read-out: IZ. Format: functional.
Assay [14] deals with Enterococcus faecium. The assay can be described thus: Antibacterial activity against Enterococcus faecium at 10 ug/disk by agar disk diffusion assay. Format: functional. As to conditions: read-out: IZ.
The test system of assay [15] is Enterococcus. The assay is described as follows: Antibacterial activity against vancomycin-resistant Enterococcus at 5 ug/disk by agar disk diffusion assay. Format: functional. As to conditions: read-out: IZ.
Assay [16] concerns Enterococcus faecium. The assay can be described thus: Antibacterial activity against Enterococcus faecium at 50 ug/disk by agar disk diffusion assay. Format: functional, organism-based.
For assay [17], the system named is Enterococcus. The assay can be described thus: Antibacterial activity against vancomycin-resistant Enterococcus at 50 ug/disk by agar disk diffusion assay. Format: functional, organism-based.
In assay [18] the test system is Enterococcus faecium. The assay is described as follows: Antibacterial activity against Enterococcus faecium at 5 ug/disk by agar disk diffusion assay. Format: functional. As to conditions: read-out: IZ.

Regarding `CN(C)C(=O)CNC(=O)/C=C/CCCCCCCCCC=C(Br)Br`, the “inhibition zone (IZ)” value with Staphylococcus aureus [1] and in the assay with Staphylococcus aureus [2] was “inactive” each time.

Turning to `O=C(O)CCNC(=O)/C=C/CCCCCCCCCC=C(Br)Br`, the zone of inhibition at 10 µg/disc in the assay on Staphylococcus aureus [3], in the assay on Staphylococcus aureus [4] and with Enterococcus [6] was 8 mm in each case. Also, the zone of inhibition at 25 µg/disc in the assay with Enterococcus faecium [5] and with Enterococcus [7] was 8 mm in each case. The minimal inhibitory concentration (MIC) against Staphylococcus aureus [8] turned out to be 3.6 µg/mL (≈ 7.94 µM); against Staphylococcus aureus [9], 3.3 µg/mL (≈ 7.28 µM); in the assay with Enterococcus faecium [10], 11 µg/mL (≈ 24.3 µM); in the assay with Enterococcus [11], 12 µg/mL (≈ 26.5 µM).

Regarding `O=C(/C=C/CCCCCCCCCC=C(Br)Br)N[C@H](C(=O)O)c1ccccc1`, the zone of inhibition at 25 µg/disc with Staphylococcus aureus [12], in the assay with Staphylococcus aureus [13] and with Enterococcus [7] was 8 mm in each case. Further, the zone of inhibition at 10 µg/disc in the assay on Enterococcus faecium [14] and with Enterococcus [6] was 8 mm throughout. Further, the minimum inhibitory concentration (MIC) came out at 17 µg/mL (≈ 33 µM) against Staphylococcus aureus [8], 21 µg/mL (≈ 40.8 µM) against Staphylococcus aureus [9], 25 µg/mL (≈ 48.5 µM) in the assay on Enterococcus faecium [10] and 22 µg/mL (≈ 42.7 µM) against Enterococcus [11].

`CC(C)C[C@H](NC(=O)/C=C/CCCCCCCCCC=C(Br)Br)C(=O)O`: the zone of inhibition at 25 µg/disc in the assay on Staphylococcus aureus [12] and with Staphylococcus aureus [13] was 8 mm each time. Moreover, the zone of inhibition at 10 µg/disc in the assay on Enterococcus faecium [14] is 8 mm. The zone of inhibition at 5 µg/disc in the assay with Enterococcus [15] was determined as 8 mm. For the same compound, the MIC turned out to be 2.3 µg/mL (≈ 4.64 µM) against Staphylococcus aureus [8], 2.9 µg/mL (≈ 5.86 µM) against Staphylococcus aureus [9], 6.4 µg/mL (≈ 12.9 µM) in the assay with Enterococcus faecium [10] and 3.7 µg/mL (≈ 7.47 µM) in the assay with Enterococcus [11].

With `O=C(O)C[C@H](NC(=O)/C=C/CCCCCCCCCC=C(Br)Br)C(=O)O`, the “inhibition zone (IZ)” value in the assay with Staphylococcus aureus [1], with Enterococcus faecium [16] and in the assay on Enterococcus [17] was “inactive” throughout. Besides, the MIC result in the assay with Staphylococcus aureus [8], in the assay on Staphylococcus aureus [9], in the assay with Enterococcus faecium [10] and with Enterococcus [11] was “inactive” throughout.

As for `O=C(O)CNC(=O)/C=C/CCC=C(Br)Br`, the “inhibition zone (IZ)” value in the assay with Staphylococcus aureus [1] and in the assay with Staphylococcus aureus [2] was “inactive” in each case.

Turning to `NC(=O)CNC(=O)/C=C/CCCCCCCCCC=C(Br)Br`, the “inhibition zone (IZ)” value with Staphylococcus aureus [1] and with Staphylococcus aureus [2] was “inactive” each time.

As for `O=C(O)/C=C/CCCCCCCCCC=C(Br)Br` [MOTUALEVIC ACID E], the zone of inhibition at 50 µg/disc in the assay with Staphylococcus aureus [1] was 8 mm. Further, the “inhibition zone (IZ)” value in the assay with Staphylococcus aureus [2] was “inactive”.

Take `O=C(O)CN(CC(=O)O)C(=O)/C=C/CCCCCCCCCC=C(Br)Br`: the zone of inhibition at 50 µg/disc in the assay on Staphylococcus aureus [1] and in the assay on Staphylococcus aureus [2] was 8 mm in each case. Moreover, the “inhibition zone (IZ)” value in the assay with Enterococcus faecium [16] and in the assay on Enterococcus [17] was “inactive” each time. Further, the MIC result in the assay on Staphylococcus aureus [8], in the assay on Staphylococcus aureus [9], in the assay with Enterococcus faecium [10] and in the assay with Enterococcus [11] was “inactive” in each case.

Take `O=C(O)CNC(=O)/C=C/CCCCCCCC=C(Br)Br`: the zone of inhibition at 50 µg/disc in the assay with Staphylococcus aureus [1] and in the assay on Staphylococcus aureus [2] was 8 mm throughout.

On to `O=C(/C=C/CCCCCCCCCC=C(Br)Br)N[C@@H](Cc1ccccc1)C(=O)O`, for which, in the assay on Staphylococcus aureus [1], the “inhibition zone (IZ)” value was “inactive”. Moreover, the zone of inhibition at 50 µg/disc with Staphylococcus aureus [2] was 8 mm. The zone of inhibition at 5 µg/disc in the assay on Enterococcus faecium [18] and with Enterococcus [15] was 8 mm in each case. Besides, the MIC in the assay on Staphylococcus aureus [8] was found to be 5 µg/mL (≈ 9.45 µM); in the assay with Staphylococcus aureus [9], 4.4 µg/mL (≈ 8.31 µM); with Enterococcus faecium [10] it was 6.3 µg/mL (≈ 11.9 µM); with Enterococcus [11] it was 2.9 µg/mL (≈ 5.48 µM).

As to `O=C(O)CNC(=O)/C=C/CCCCCCCCCC=C(Br)Br` [MOTUALEVIC ACID A], the zone of inhibition at 10 µg/disc in the assay with Staphylococcus aureus [3], with Staphylococcus aureus [4] and in the assay on Enterococcus [6] was 8 mm in each case. In addition, the zone of inhibition at 25 µg/disc in the assay with Enterococcus faecium [5] and with Enterococcus [7] was 8 mm throughout. The minimum inhibitory concentration (MIC) in the assay on Staphylococcus aureus [8] is 11 µg/mL (≈ 25 µM); against Staphylococcus aureus [9] it was 9.3 µg/mL (≈ 21.2 µM); in the assay with Enterococcus faecium [10], 9.3 µg/mL (≈ 21.2 µM); against Enterococcus [11] it was 12 µg/mL (≈ 27.3 µM).

Take `O=C(O)[C@@H]1CCCN1C(=O)/C=C/CCCCCCCCCC=C(Br)Br`: the zone of inhibition at 25 µg/disc in the assay on Staphylococcus aureus [12] and in the assay on Enterococcus faecium [5] was 8 mm each time. Moreover, the zone of inhibition at 10 µg/disc in the assay with Staphylococcus aureus [4] was determined as 8 mm. Besides, in the assay with Enterococcus [15], the zone of inhibition at 5 µg/disc was determined as 8 mm. The MIC was determined as 10 µg/mL (≈ 20.9 µM) against Staphylococcus aureus [8], 9 µg/mL (≈ 18.8 µM) against Staphylococcus aureus [9], 10 µg/mL (≈ 20.9 µM) against Enterococcus faecium [10] and 12 µg/mL (≈ 25 µM) against Enterococcus [11].

Turning to `O=C(O)[C@H]1CCCN1C(=O)/C=C/CCCCCCCCCC=C(Br)Br`, the zone of inhibition at 25 µg/disc with Staphylococcus aureus [12], in the assay on Staphylococcus aureus [13], in the assay on Enterococcus faecium [5] and in the assay on Enterococcus [7] was 8 mm throughout. Also, the zone of inhibition at 10 µg/disc with Enterococcus [6] was 8 mm. Besides, the minimum inhibitory concentration (MIC) in the assay with Staphylococcus aureus [8] was determined as 18 µg/mL (≈ 37.6 µM); in the assay on Staphylococcus aureus [9], 19 µg/mL (≈ 39.6 µM); in the assay with Enterococcus faecium [10], 15 µg/mL (≈ 31.3 µM); against Enterococcus [11] it was 11 µg/mL (≈ 23 µM).

`CCC/C=C/C(=O)NCC(=O)O`: the “inhibition zone (IZ)” value in the assay with Staphylococcus aureus [1] and in the assay on Staphylococcus aureus [2] was “inactive” throughout.

Take `O=C(O)CCCCCCCNC(=O)/C=C/CCC=C(Br)Br`: the zone of inhibition at 25 µg/disc in the assay on Staphylococcus aureus [12] and in the assay on Staphylococcus aureus [13] was 8 mm in each case.

`CCCCCCCCC/C=C/C(=O)NCC(=O)O`: the “inhibition zone (IZ)” value in the assay with Staphylococcus aureus [1] and in the assay with Staphylococcus aureus [2] was “inactive” throughout.

In the case of `O=C(O)CCCNC(=O)/C=C/CCCCCCCCCC=C(Br)Br`, the zone of inhibition at 25 µg/disc in the assay on Staphylococcus aureus [12], in the assay with Staphylococcus aureus [13] and in the assay with Enterococcus [7] was 8 mm throughout. Also, the zone of inhibition at 10 µg/disc in the assay on Enterococcus faecium [14] and with Enterococcus [6] was 8 mm throughout. In addition, the MIC in the assay on Staphylococcus aureus [8] stood at 2.5 µg/mL (≈ 5.35 µM); in the assay on Staphylococcus aureus [9] it was 2.4 µg/mL (≈ 5.14 µM); against Enterococcus faecium [10], 11 µg/mL (≈ 23.5 µM); in the assay with Enterococcus [11] it was 8.5 µg/mL (≈ 18.2 µM).

Regarding `O=C(O)[C@@H]1C[C@H](O)CN1C(=O)/C=C/CCCCCCCCCC=C(Br)Br`, the “inhibition zone (IZ)” value in the assay with Staphylococcus aureus [1] is “inactive”. For the same compound, the zone of inhibition at 25 µg/disc in the assay on Staphylococcus aureus [13], with Enterococcus faecium [5] and in the assay on Enterococcus [7] was 8 mm each time.

As for `C[N+](C)(C)CCNC(=O)/C=C/CCCCCCCCCC=C(Br)Br.[Cl-]`, the zone of inhibition at 10 µg/disc with Staphylococcus aureus [3] and with Staphylococcus aureus [4] was 8 mm each time. The zone of inhibition at 25 µg/disc in the assay with Enterococcus faecium [5] and with Enterococcus [7] was 8 mm throughout. For the same compound, the MIC in the assay on Staphylococcus aureus [8] was 2.4 µg/mL; against Staphylococcus aureus [9], 4.2 µg/mL; in the assay on Enterococcus faecium [10] it was 3.7 µg/mL; in the assay on Enterococcus [11] it was 5.2 µg/mL.
